“And” between values parts separate entries of the source, which are not always exact repeats. Equal entries are not always repeated.
Columns and labels:
ERβ = target: T1, ERβ (Homo sapiens, UniProt Q92731); assay: ER reporter gene assay in HEK 293 T cells (ER-luciferase reporter); format: cell-based; settings: for Reporter gene assay raw data, ERb: ERb data block (head r19), 4 replicate columns; for ERb reporter gene assay raw data (response): four replicate columns per compound
T1 construct: expressed in transfected cells; host or cells: HEK 293 T cells

ERα = target: T2, ERα (Homo sapiens, UniProt P03372); assay: as above; format: cell-based; settings: for Reporter gene assay raw data, ERa: 4 replicate columns
T2 construct: expressed in transfected cells; host or cells: HEK 293 T cells
T2 sequence (P03372 1-595): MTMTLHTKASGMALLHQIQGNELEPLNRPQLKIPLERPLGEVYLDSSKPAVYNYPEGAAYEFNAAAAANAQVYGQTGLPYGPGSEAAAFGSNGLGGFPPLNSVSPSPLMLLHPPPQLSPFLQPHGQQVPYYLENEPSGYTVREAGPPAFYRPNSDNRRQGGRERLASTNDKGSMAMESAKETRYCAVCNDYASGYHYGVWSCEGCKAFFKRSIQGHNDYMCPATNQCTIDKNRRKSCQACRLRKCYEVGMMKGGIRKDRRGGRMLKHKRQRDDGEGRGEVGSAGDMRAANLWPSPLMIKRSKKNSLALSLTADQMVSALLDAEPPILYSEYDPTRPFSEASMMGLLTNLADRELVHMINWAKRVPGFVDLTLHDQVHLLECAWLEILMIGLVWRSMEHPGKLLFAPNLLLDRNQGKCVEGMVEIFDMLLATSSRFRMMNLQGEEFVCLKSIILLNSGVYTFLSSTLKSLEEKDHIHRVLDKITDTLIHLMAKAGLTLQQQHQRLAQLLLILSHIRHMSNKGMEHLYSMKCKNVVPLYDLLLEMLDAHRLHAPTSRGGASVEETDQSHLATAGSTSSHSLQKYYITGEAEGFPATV

T1 sequence (Q92731 whole entry, species assumed): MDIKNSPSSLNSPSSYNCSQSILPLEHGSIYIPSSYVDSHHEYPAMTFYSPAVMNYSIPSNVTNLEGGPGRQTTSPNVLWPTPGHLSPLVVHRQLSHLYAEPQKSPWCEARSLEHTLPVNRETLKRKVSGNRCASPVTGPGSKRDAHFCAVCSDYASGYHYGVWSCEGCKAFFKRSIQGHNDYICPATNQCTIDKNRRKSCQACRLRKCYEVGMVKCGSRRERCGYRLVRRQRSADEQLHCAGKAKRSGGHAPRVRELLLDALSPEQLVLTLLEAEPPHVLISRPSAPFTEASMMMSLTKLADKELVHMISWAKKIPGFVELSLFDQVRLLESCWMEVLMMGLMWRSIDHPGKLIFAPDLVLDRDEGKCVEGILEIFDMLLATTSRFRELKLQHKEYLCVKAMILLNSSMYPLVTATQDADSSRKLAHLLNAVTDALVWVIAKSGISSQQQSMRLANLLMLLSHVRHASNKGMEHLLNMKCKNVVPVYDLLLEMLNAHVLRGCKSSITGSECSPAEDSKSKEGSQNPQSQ

C[C@]12CC[C@@H]3c4ccc(O)cc4CC[C@H]3[C@@H]1CC[C@@H]2O [Compound E2, estradiol]
Reporter gene assay raw data, ERb (ERβ; Log M -6): 88.8232 and 101.64 and 110.514 and 90.7218 | ERb reporter gene assay raw data (response) (ERβ; Log M -6): 84.0609 and 88.7479 and 111.697 and 94.4619 | Reporter gene assay raw data, ERb (ERβ; Log M -6.47756): 97.0869 and 99.8524 and 105.457 and 96.3817 | ERb reporter gene assay raw data (response) (ERβ; Log M -6.47756): 91.3063 and 103.043 and 96.9565 and 108.694 | Reporter gene assay raw data, ERb (ERβ; Log M -6.95468): 101.657 and 108.929 and 91.071 and 98.3432 | ERb reporter gene assay raw data (response) (ERβ; Log M -6.95468): 85.5094 and 93.8773 and 82.9145 and 86.4119 | Reporter gene assay raw data, ERb (ERβ; Log M -7.4318): 88.9611 and 107.81 and 89.4793 | ERb reporter gene assay raw data (response) (ERβ; Log M -7.4318): 92.1619 and 99.8727 and 93.6976 and 98.6683 | Reporter gene assay raw data, ERb (ERβ; Log M -7.91009): 87.7241 and 103.45 and 96.1824 and 92.6694 | ERb reporter gene assay raw data (response) (ERβ; Log M -7.91009): 89.9017 and 89.3359 and 90.9076 and 106.617 | Reporter gene assay raw data, ERb (ERβ; Log M -8.3851): 90.4631 and 100.397 and 90.4263 and 91.0339 | ERb reporter gene assay raw data (response) (ERβ; Log M -8.3851): 91.9536 and 86.2134 and 78.7089 and 97.5579 | Reporter gene assay raw data, ERb (ERβ; Log M -8.86328): 79.9036 and 104.483 and 99.1546 and 93.2724 | ERb reporter gene assay raw data (response) (ERβ; Log M -8.86328): 95.1963 and 89.1365 and 87.1229 and 89.1607 | Reporter gene assay raw data, ERb (ERβ; Log M -9.34008): 95.3149 and 101.905 and 91.5426 and 83.1517 | ERb reporter gene assay raw data (response) (ERβ; Log M -9.34008): 83.69 and 95.3591 and 88.894 and 92.378 | Reporter gene assay raw data, ERb (ERβ; Log M -9.81816): 104.147 and 95.8332 and 93.5201 and 92.5995 | ERb reporter gene assay raw data (response) (ERβ; Log M -9.81816): 83.8842 and 77.8861 and 83.3564 and 89.1956 | Reporter gene assay raw data, ERb (ERβ; Log M -10.2941): 77.6845 and 76.952 and 81.0679 and 77.2912 | ERb reporter gene assay raw data (response) (ERβ; Log M -10.2941): 80.3017 and 74.375 and 74.4575 and 76.8278 | Reporter gene assay raw data, ERb (ERβ; Log M -10.7721): 31.1486 and 35.6178 and 35.7979 and 36.2215 | ERb reporter gene assay raw data (response) (ERβ; Log M -10.7721): 27.7709 and 32.5606 and 30.8658 | Reporter gene assay raw data, ERb (ERβ; Log M -11.248): 7.1742 and 11.1236 and 8.004 and 9.347 | ERb reporter gene assay raw data (response) (ERβ; Log M -11.248): 5.759 and 5.232 and 4.796 and 6.634 | ERb reporter gene assay raw data (response) (ERβ; Log M -13): -0.5566 and 0.8119 and -0.8119 and 0.5566

Oc1ccc([C@@H]2Oc3ccc(O)cc3[C@@H]3CCC[C@@H]32)cc1 [LY500307]
Reporter gene assay raw data, ERa (ERα; Log M -6, first ERa data block (head r2)): 95.3498 and 76.8258 and 78.8468 and 79.4968 | Reporter gene assay raw data, ERa (ERα; Log M -6, second ERa data block (head r34)): 84.2897 and 88.4184 and 89.8518 and 82.7548 | Reporter gene assay raw data, ERa (ERα; Log M -6.47756, first ERa data block (head r2)): 81.0788 and 76.9627 and 81.3158 and 77.2241 | Reporter gene assay raw data, ERa (ERα; Log M -6.47756, second ERa data block (head r34)): 83.7373 and 79.8906 and 79.6354 and 82.4556 | Reporter gene assay raw data, ERa (ERα; Log M -6.95468, first ERa data block (head r2)): 64.5612 and 69.8569 and 66.3267 and 71.602 | Reporter gene assay raw data, ERa (ERα; Log M -6.95468, second ERa data block (head r34)): 71.7534 and 71.241 and 72.7885 and 70.2307 | Reporter gene assay raw data, ERa (ERα; Log M -7.4318, first ERa data block (head r2)): 51.8548 and 63.5801 and 59.7283 and 55.8203 | Reporter gene assay raw data, ERa (ERα; Log M -7.4318, second ERa data block (head r34)): 63.921 and 68.3671 and 59.0742 and 56.656 | Reporter gene assay raw data, ERa (ERα; Log M -7.91009, first ERa data block (head r2)): 45.1889 and 57.478 and 50.9227 and 51.1094 | Reporter gene assay raw data, ERa (ERα; Log M -7.91009, second ERa data block (head r34)): 50.9317 and 49.5895 and 46.336 and 52.0394 | Reporter gene assay raw data, ERa (ERα; Log M -8.3851, first ERa data block (head r2)): 49.7552 and 47.0158 and 40.3598 and 42.6852 | Reporter gene assay raw data, ERa (ERα; Log M -8.3851, second ERa data block (head r34)): 51.0127 and 45.6306 and 44.3415 and 46.4772 | Reporter gene assay raw data, ERa (ERα; Log M -8.86328, first ERa data block (head r2)): 31.993 and 35.5083 and 37.6374 and 35.7027 | Reporter gene assay raw data, ERa (ERα; Log M -8.86328, second ERa data block (head r34)): 42.4323 and 38.564 and 35.9099 and 35.545 | Reporter gene assay raw data, ERa (ERα; Log M -9.34008, first ERa data block (head r2)): 17.3101 and 15.2621 and 18.8474 and 18.6811 | Reporter gene assay raw data, ERa (ERα; Log M -9.34008, second ERa data block (head r34)): 21.5928 and 20.6886 and 16.8312 and 20.0407 | Reporter gene assay raw data, ERa (ERα; Log M -9.81816, first ERa data block (head r2)): 8.154 and 4.486 and 4.8306 and 4.983 | Reporter gene assay raw data, ERa (ERα; Log M -9.81816, second ERa data block (head r34)): 6.6406 and 6.967 and 4.962 and 7.591 | Reporter gene assay raw data, ERa (ERα; Log M -10.2941, first ERa data block (head r2)): 3.132 and 9.724 and 4.561 and 11.8118 | Reporter gene assay raw data, ERa (ERα; Log M -10.2941, second ERa data block (head r34)): 3.775 and 13.8366 and 4.292 and 12.8533 | Reporter gene assay raw data, ERa (ERα; Log M -10.7721, first ERa data block (head r2)): 1.451 and 1.5656 and -0.4526 and 1.85 | Reporter gene assay raw data, ERa (ERα; Log M -10.7721, second ERa data block (head r34)): -0.2019 and 1.235 and 0.142 and 1.333 | Reporter gene assay raw data, ERa (ERα; Log M -11.248, first ERa data block (head r2)): -0.6879 and -0.2253 and -0.584 and 0.4876 | Reporter gene assay raw data, ERa (ERα; Log M -11.248, second ERa data block (head r34)): -0.9111 and -0.3248 and 1.487 and 1.068 | ERa reporter gene assay raw data (response) (ERα; Log M -13, four replicate columns per compound): 0.8253 and -0.8253 and 1.478 and -1.478

Source: publication PMC12508063, “Chloroindazole based estrogen receptor β ligands with favorable pharmacokinetics promote functional remyelination and visual recovery” (Scientific Reports, 2025)
